# Assay results taken from patent US8222248B2, “Organic compounds” (Novartis AG, priority 2006, dated 2012).
# Tested on: not given
# Assay: not given
# Settings: not given
row,melting point [°C],SMILES
1,207 to 209,"Cc1ccc(NC(=O)c2ccc3oc(-c4c(C)cc(OCC(=O)N(C)C)cc4C)nc3c2)cc1C [Example 4-23, 2-(4-Dimethylcarbamoylmethoxy-2,6-dimethylphenyl)-benzooxazole-5-carboxylic acid (3,4-dimethylphenyl)-amide]"
2,223 to 225,"Cc1ccc(NC(=O)c2ccc3c(c2)C(=O)N(c2c(C)cccc2C)C3=O)cc1C [Example 7-1, 2-(2,6-Dimethylphenyl)-1,3-dioxo-2,3-dihydro-1H-isoindole-5-carboxylic acid (3,4-dimethylphenyl)-amide]"
3,238 to 240,"Cc1ccc(NC(=O)c2ccc3c(c2)C(=O)N(c2c(Cl)cccc2Cl)C3=O)cc1C [Example 7-2, 2-(2,6-Dichlorophenyl)-1,3-dioxo-2,3-dihydro-1H-isoindole-5-carboxylic acid (3,4-dimethylphenyl)-amide]"

# Target: T1, human DGAT1 (Homo sapiens, UniProt O75907)
# T1 construct: made in house; host or cells: Sf9 cells (membrane preparation)
# T1 sequence (O75907 1-488): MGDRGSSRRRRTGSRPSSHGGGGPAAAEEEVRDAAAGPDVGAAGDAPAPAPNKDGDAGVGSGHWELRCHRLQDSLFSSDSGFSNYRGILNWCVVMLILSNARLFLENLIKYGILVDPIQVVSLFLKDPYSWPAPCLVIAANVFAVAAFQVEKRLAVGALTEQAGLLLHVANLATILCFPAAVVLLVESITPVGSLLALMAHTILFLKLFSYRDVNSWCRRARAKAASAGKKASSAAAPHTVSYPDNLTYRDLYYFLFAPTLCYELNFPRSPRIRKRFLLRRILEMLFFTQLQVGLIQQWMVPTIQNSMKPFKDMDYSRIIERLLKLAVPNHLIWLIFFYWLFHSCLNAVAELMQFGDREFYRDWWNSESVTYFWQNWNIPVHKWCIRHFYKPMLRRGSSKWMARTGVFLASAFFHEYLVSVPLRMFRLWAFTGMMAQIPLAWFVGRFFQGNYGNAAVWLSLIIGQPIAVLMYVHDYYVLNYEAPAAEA
# Assay: DGAT1 enzyme inhibition assay (membrane preparation, LC/MS/MS readout)
# Assay type: biochemical
# Settings: DGAT1 inhibitory activity, table at end of examples
# Method: The enzyme preparation used in this assay is a membrane preparation from Sf9 cells overexpressing human (His)6DGAT1. During all steps samples were chilled to 4° C. Sf9 cells expressing human (His)6DGAT1 were thawed at RT and re-suspended at a 10:1 ratio (mL buffer/g of cells) in 50 mM HEPES, 1× Complete Protease Inhibitor, pH 7.5.
# The re-suspended pellet was homogenized for 1 min using a Brinkman PT 10/35 homogenizer with a 20 mm generator. Cells were lysed using Avestin Emulsiflex (chilled to 4° C.) at 10000-15000 psi. Lysate was centrifuged at 100,000×g for 1 h at 4° C. Supernatant was removed and pellets were re-suspended in 50 mM HEPES, 1× Complete Protease Inhibitor, pH 7.5 at ⅙ the volume of supernatant. Re-suspended pellets were pooled and homogenized with 10 strokes of a Glas-Col motor driven teflon pestle on setting 70. The protein concentration of the membrane preparation was quantified using BCA protein assay with 1% SDS. The membrane preparation was aliquoted, frozen on dry ice, and stored at −80° C.
# For 50 mL, 25 mL of 0.2 M HEPES stock buffer, 0.5 mL of 1 M MgCl2 ([…]), and 24.5 mL of milli-Q H2O are added to the 55 mL Wheaton Potter-Elvehjem homogenizer. Enzyme preparation (0.1 mL) is added to buffer and the mixture is homogenized with 5 strokes on ice using the Glas-Col variable speed homogenizer system on setting 70.
# For 50 mL, 0.5 mL 10 mM diolein is added to 9.5 mL of EtOH in a 50 mL Falcon screw cap conical centrifuge tube. Five mL of 10 mM sodium acetate pH 4.5 is added followed by 0.5 mL of 10 mM oleoyl-CoA. Finally, the remaining 4.5 mL of 10 mM sodium acetate pH 4.5 is added followed by 30 mL of milli-Q H20. The solution should be gently agitated by hand to induce mixing. The final concentrations of EtOH and sodium acetate are 20% and 2 mM, respectively.
# Dry compounds are dissolved in the appropriate volume of DMSO to a final concentration of 10 mM. A 10-point, 3-fold dose response is used to evaluate compound potency. All dilutions are performed in DMSO in a Greiner 384-well microplate.
# 1. 2 μL of compound in DMSO is added to the appropriate wells. 2 μL of DMSO is added to 100% activity and 100% inhibition controls.
# 2. 25 μL of enzyme mix is added to all wells and plate(s) are incubated for 10 min at RT.
# 3. 10 μL of 20% acetic acid quench is added to 100% inhibition control wells. Plate(s) are vortexed using Troemner multi-tube vortexer (setting 7 for 10 sec).
# 4. 25 μL of substrate mix is added to all wells. Plate(s) are vortexed using Troemner multi-tube vortexer (setting 7 for 10 sec). Plate(s) are incubated for 30 min at RT.
# 5. 10 μL of 20% acetic acid quench is added to all wells. Plate(s) are vortexed using Troemner multi-tube vortexer (setting 7 for 10 sec).
# 6. 50 μL of 1-butanol w/glyceryl tripalmitoleate internal standard is added to all wells.
# 7. Plate(s) are sealed with super pierce strong plate sealer using the thermo-sealer.
# 8. Plate(s) are vortexed using Troemner multi-tube vortexer (setting 10 for 5 min).
# 9. Plate(s) are centrifuged at 162×g (1000 rpm for GH-3.8 rotor) for 5 min using Beckman GS-6R tabletop centrifuge.
# Samples were analyzed by LC/MS/MS using a Waters 1525 μLC and Quattro Micro API MS. Where indicated, tripalmitolein was used as an internal standard to control for instrument variation.
# Data is converted to % inhibition prior to curve fitting using the following equation: […]
row,IC50 [µM],SMILES
1,6.9,"Cc1cccc(C(=O)Nc2ccc3nc(-c4c(Cl)cccc4Cl)[nH]c3c2)c1 [Example 1-11, N-[2-(2,6-Dichloro-phenyl)-3H-benzoimidazol-5-yl]-3-methyl-benzamide]"
2,0.23,"O=C(Nc1cccc(Cl)c1)c1ccc2nc(-c3cccc(Cl)c3Cl)[nH]c2c1 [Example 1-124, 2-(2,3-Dichloro-phenyl)-3H-benzoimidazole-5-carboxylic acid (3-chloro-phenyl)-amide]"
3,12,"COC(=O)c1ccc(-c2nc3ccc(C(=O)Nc4cccc(Cl)c4)cc3[nH]2)cc1 [Example 1-136, 4-[6-(3-Chloro-phenylcarbamoyl)-1H-benzoimidazol-2-yl]-benzoic acid methyl ester]"
4,6.8,"Cc1ccccc1CNC(=O)c1ccc2nc(-c3c(Cl)cccc3Cl)oc2c1 [Example 4-15, 2-(2,6-Dichloro-phenyl)-benzooxazole-6-carboxylic acid 2-methyl-benzylamide]"

# Same assay, conditions: inhibitory activity to human DGAT1, Table 1, values given as ranges
row,IC50 [µM],SMILES
1,1 to 30,"Cc1nc2cc(NC(=O)c3ccc4[nH]c(-c5c(Cl)cccc5Cl)cc4c3)ccc2s1 [Example 3-1, 2-(2,6-dichloro-phenyl)-1H-indole-5-carboxylic acid (2-methyl-benzothiazol-5-yl)-amide]"
2,30 to 100,"COc1ccccc1CCNC(=O)c1ccc2nc(-c3c(Cl)cccc3Cl)oc2c1 [Example 4-11, 2-(2,6-Dichloro-phenyl)-benzooxazole-6-carboxylic acid [2-(2-methoxy-phenyl)-ethyl]-amide]"

# Continued, molecule first:
row,SMILES,IC50 [µM]
1,CC(=O)Nc1ccc2nc(-c3c(Cl)cccc3Cl)[nH]c2c1 [Example 1-6],1 to 30
2,"CCOc1cccc(CCNC(=O)c2ccc3nc(-c4c(Cl)cccc4Cl)[nH]c3c2)c1 [Example 1-82, 2-(2,6-Dichloro-phenyl)-3H-benzoimidazole-5-carboxylic acid [2-(3-ethoxy-phenyl)-ethyl]-amide]",< 1
